From patent publication US20250017914A1, “6-AZA-QUINOLINE DERIVATIVES AND RELATED USES” (Black Diamond Therapeutics, Inc., priority 2021, published 2025)

target: T1, BaF3 BRAF-KIAA1549 fusion cells (Homo sapiens, UniProt P15056); assay: BaF3 BRAF-KIAA1549 fusion cell proliferation assay (CellTiterGlo, 96 hours); type: cell-based; details: Table A2
T1 construct: The BRAF-KIAA1549 fusion mutant was subcloned into pMXs-IRES-Blasticidin (RTV-016, Cell Biolabs, San Diego, CA); No tag given; Q9HCM3 (UPF0606 protein KIAA1549)
T1 sequence (P15056 whole entry, change not shown, the tested form may be a part): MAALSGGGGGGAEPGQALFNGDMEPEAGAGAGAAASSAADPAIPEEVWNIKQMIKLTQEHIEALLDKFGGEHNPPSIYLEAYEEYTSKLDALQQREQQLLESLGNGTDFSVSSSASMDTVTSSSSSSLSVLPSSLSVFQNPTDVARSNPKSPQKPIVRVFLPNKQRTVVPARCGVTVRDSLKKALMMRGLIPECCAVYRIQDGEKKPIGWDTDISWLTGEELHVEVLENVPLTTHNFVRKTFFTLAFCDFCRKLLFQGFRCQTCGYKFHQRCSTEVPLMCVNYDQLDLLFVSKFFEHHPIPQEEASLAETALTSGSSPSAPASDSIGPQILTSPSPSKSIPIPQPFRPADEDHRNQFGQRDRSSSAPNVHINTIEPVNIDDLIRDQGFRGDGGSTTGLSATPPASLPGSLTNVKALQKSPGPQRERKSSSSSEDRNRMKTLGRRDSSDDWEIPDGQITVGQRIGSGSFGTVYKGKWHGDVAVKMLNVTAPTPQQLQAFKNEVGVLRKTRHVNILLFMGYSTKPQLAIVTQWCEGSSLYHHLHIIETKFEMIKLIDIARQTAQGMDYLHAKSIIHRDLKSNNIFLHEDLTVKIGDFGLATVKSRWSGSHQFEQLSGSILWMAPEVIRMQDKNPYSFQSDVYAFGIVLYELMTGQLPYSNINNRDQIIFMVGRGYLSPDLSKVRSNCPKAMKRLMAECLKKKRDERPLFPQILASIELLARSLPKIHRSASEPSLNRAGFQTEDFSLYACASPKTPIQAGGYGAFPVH
Outline: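 BaF3 cells retrovirally transduced with BRAF-KIAA1549 fusion and blasticidin-selected were plated at 7×10^4 c/well in RPMI, 10% heat-inactivated FBS, 1% L-glutamine, and exposed to compound for 96 hours. Growth was read as ATP content by CellTiterGlo luminescence. IC50 was fitted by Levenberg-Marquardt, normalised to DMSO-treated cells.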

GI50 | Structure (SMILES)
20 to 100 nM | CNc1cc2ncc(-c3cc(NC(=O)c4n[nH]c5c4C[C@H]4C[C@@H]54)cnc3C)cc2cn1 [Compound 253, (4aR,5aR)—N-(6-methyl-5-(7-(methylamino)-1,6-naphthyridin-3-yl)pyridin-3-yl)-4,4a,5,5a-tetrahydro-1H-cyclopropa[4,5]cyclopenta[1,2-c]pyrazole-3-carboxamide]
100 to 500 nM | CNc1cc2ncc(-c3cc(NC(=O)c4noc5c4CN(C(C)C)CC5)cnc3C)cc2cn1 [Compound 254, 5-isopropyl-N-(6-methyl-5-(7-(methylamino)-1,6-naphthyridin-3-yl)pyridin-3-yl)-4,5,6,7-tetrahydroisoxazolo[4,5-c]pyridine-3-carboxamide]
20 to 100 nM | CNc1cc2ncc(-c3cc(NC(=O)c4cc(C(C)(C)C(N)=O)ccn4)ccc3C)cc2cn1 [Compound 255]
20 to 100 nM | CNc1cc2ncc(-c3cc(NC(=O)c4nccc(C(C)C)c4Cl)cnc3C)cc2cn1 [Compound 256, 3-chloro-4-isopropyl-N-(6-methyl-5-(7-(methylamino)-1,6-naphthyridin-3-yl)pyridin-3-yl)picolinamide]
20 to 100 nM | CNc1cc2ncc(-c3cc(NC(=O)c4noc5c4CC(C)(C)CC5)cnc3C)cc2cn1 [Compound 257, 5,5-dimethyl-N-(6-methyl-5-(7-(methylamino)-1,6-naphthyridin-3-yl)pyridin-3-yl)-4,5,6,7-tetrahydrobenzo[d]isoxazole-3-carboxamide]
20 to 100 nM | CCC(OC)c1ccnc(C(=O)Nc2cnc(C)c(-c3cnc4cc(NC)ncc4c3)c2)c1 (centres unmarked) [Compound 260, 4-(1-methoxypropyl)-N-(6-methyl-5-(7-(methylamino)-1,6-naphthyridin-3-yl)pyridin-3-yl)picolinamide]
< 20 nM | CNc1cc2ncc(-c3cc(NC(=O)c4n[nH]c5c4CC(C)CC5)ccc3C)cc2cn1 (centres unmarked) [Compound 261, 5-methyl-N-(4-methyl-3-(7-(methylamino)-1,6-naphthyridin-3-yl)phenyl)-4,5,6,7-tetrahydro-1H-indazole-3-carboxamide]
20 to 100 nM | CNc1cc2ncc(-c3cc(NC(=O)c4n[nH]c5c4CCCC5(C)C)ccc3C)cc2cn1 [Compound 262, 7,7-dimethyl-N-(4-methyl-3-(7-(methylamino)-1,6-naphthyridin-3-yl)phenyl)-4,5,6,7-tetrahydro-1H-indazole-3-carboxamide]
< 20 nM | CNc1cc2ncc(-c3cc(NC(=O)c4c[nH]c5ccc(C)cc45)ccc3C)cc2cn1 [Compound 263, 5-methyl-N-(4-methyl-3-(7-(methylamino)-1,6-naphthyridin-3-yl)phenyl)-1H-indole-3-carboxamide]
20 to 100 nM | CNc1cc2ncc(-c3cc(NC(=O)c4n[nH]c5c4C[C@H](C)O[C@@H]5C)ccc3C)cc2cn1 [Compound 264, (5S,7R)-5,7-dimethyl-N-(4-methyl-3-(7-(methylamino)-1,6-naphthyridin-3-yl)phenyl)-1,4,5,7-tetrahydropyrano[3,4-c]pyrazole-3-carboxamide]
< 20 nM | CNc1cc2ncc(-c3cc(NC(=O)c4cnn5c4CC(C)CC5)ccc3C)cc2cn1 (centres unmarked) [Compound 265, 5-methyl-N-(4-methyl-3-(7-(methylamino)-1,6-naphthyridin-3-yl)phenyl)-4,5,6,7-tetrahydropyrazolo[1,5-a]pyridine-3-carboxamide]
20 to 100 nM | CNc1cc2ncc(-c3cc(NC(=O)c4c[nH]c5c4CC(C)CC5)ccc3C)cc2cn1 (centres unmarked) [Compound 266, 5-methyl-N-(4-methyl-3-(7-(methylamino)-1,6-naphthyridin-3-yl)phenyl)-4,5,6,7-tetrahydro-1H-indole-3-carboxamide]
100 to 500 nM | CNc1ncc2cc(-c3cc(NC(=O)c4ccnc(C5(F)CC5)c4)ccc3C)cnc2c1Cl [Compound 269, N-[3-[8-chloro-7-(methylamino)-1,6-naphthyridin-3-yl]-4-methyl-phenyl]-2-(1-fluorocyclopropyl)pyridine-4-carboxamide]
≥ 500 nM | CNc1ncc2cc(-c3cc(NC(=O)c4ccnc(C(C)(C)C#N)c4)cnc3C)cnc2c1Cl [Compound 270, N-[5-[8-chloro-7-(methylamino)-1,6-naphthyridin-3-yl]-6-methyl-3-pyridyl]-2-(1-cyano-1-methyl-ethyl)pyridine-4-carboxamide]
20 to 100 nM | CNc1ncc2cc(-c3cc(NC(=O)c4ccnc(C5(F)CC5)c4)ccc3C)cnc2c1C#N [Compound 271, N-[3-[8-cyano-7-(methylamino)-1,6-naphthyridin-3-yl]-4-methyl-phenyl]-2-(1-fluorocyclopropyl)pyridine-4-carboxamide]
20 to 100 nM | CNc1cc2c(C#N)cc(-c3cc(NC(=O)c4ccnc(C5(F)CC5)c4)ccc3C)cc2cn1 [Compound 272, N-(3-(5-cyano-3-(methylamino)isoquinolin-7-yl)-4-methylphenyl)-2-(1-fluorocyclopropyl)isonicotinamide]
100 to 500 nM | CNc1cc2c(C#N)cc(-c3cc(NC(=O)c4ccnc(C(F)(F)F)c4)ccc3C)cc2cn1 [Compound 273, N-(3-(5-cyano-3-(methylamino)isoquinolin-7-yl)-4-methylphenyl)-2-(trifluoromethyl)isonicotinamide]
< 20 nM | Cc1ncc(NC(=O)c2cc(C(F)(F)F)ccn2)cc1-c1ccc2c3c(ncc2c1)NC(=O)C3 [Compound 274, N-(6-methyl-5-(2-oxo-2,3-dihydro-1H-pyrrolo[2,3-c]isoquinolin-7-yl)pyridin-3-yl)-4-(trifluoromethyl)picolinamide]
20 to 100 nM | Cc1ccc(NC(=O)c2cc(C(C)(C)C#N)ccn2)cc1-c1ccc2c3c(ncc2c1)NC(=O)C3 [Compound 275, 4-(2-cyanopropan-2-yl)-N-(4-methyl-3-(2-oxo-2,3-dihydro-1H-pyrrolo[2,3-c]isoquinolin-7-yl)phenyl)picolinamide]
< 20 nM | Cc1ccc(NC(=O)c2ccnc(C(C)(C)F)c2)cc1-c1ccc2c3c(ncc2c1)NC(=O)C3 [Compound 276, 2-(2-fluoropropan-2-yl)-N-(4-methyl-3-(2-oxo-2,3-dihydro-1H-pyrrolo[2,3-c]isoquinolin-7-yl)phenyl)isonicotinamide]
